The values that follow come from publication PMC3289519 (Bioorganic & medicinal chemistry letters, 2012).

Where only a bound is given, the exact number is not on record here.

In assay [1] the test system is C. parvum. Conditions: anticryptosporidial activity, literature values; cited from earlier work.
In assay [2] the test system is Toxo/CpIMPDH, strain that depends on CpIMPDH. Format: cell-based, Toxoplasma gondii. The following applies: in words.
The test system of assay [3] is human IMPDH2. Conditions: human IMPDH2, no detectable activity; cited from earlier work.
Assay [4] has as its system human IMPDH1. The following applies: human IMPDH1, no detectable activity; cited from earlier work.

On to `NC[C@@H]1O[C@H](O[C@H]2[C@@H](O)[C@H](O[C@@H]3[C@@H](O)[C@H](N)C[C@H](N)[C@H]3O[C@H]3O[C@H](CO)[C@@H](O)[C@H](O)[C@H]3N)O[C@@H]2CO)[C@H](N)[C@@H](O)[C@@H]1O` [paromomycin], for which the EC50 in assay [1] is 65 to 130 µM.

Take `O=C(Cn1c(-c2nccs2)nc2ccccc21)Nc1ccc2ccccc2c1` [Compound C97]: the “activity against T. gondii/CpIMPDH” value in assay [2] is on record as “sub-micromolar”.

In the case of `O=C(Cn1c(-c2ccccn2)nc2ccccc21)Nc1ccc2ccccc2c1` [Compound C91], the “activity against T. gondii/CpIMPDH” value in assay [2] is given as “sub-micromolar”.

For `O=C(Cn1c(-c2cscn2)nc2ccccc21)Nc1ccc2ccccc2c1` [Compound C90], the “activity against T. gondii/CpIMPDH” value in assay [2] is on record as “sub-micromolar”.

In the case of `COc1ccc(NC(=O)Cn2c(-c3cscn3)nc3ccccc32)cc1` [C], the IC50 in assay [3] and in assay [4] was more than 50 µM each time.

Consider `O=C(Cn1c(-c2nccs2)nc2ccccc21)Nc1ccc(Br)cc1` [Compound C64], for which the “activity against T. gondii/CpIMPDH” value in assay [2] was “sub-micromolar”.

On to `O=C(Cn1c(-c2nccs2)nc2ccccc21)Nc1ccc(Cl)c(Cl)c1` [Compound C84], for which the “activity against T. gondii/CpIMPDH” value in assay [2] was “sub-micromolar”.
